From PubChem BioAssay AID687040 (Broad Institute, 2013) come the findings set out here.

Structures are written as SMILES. Calls of active or inactive are those of the source.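 The calls were made as follows: active = fitted curve hits 40% activity increase at a dose no higher than the top valid tested dose; inconclusive = flat curve at 30 to 70% activity, or poor fit; inactive = the rest.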

One test relates to Huh7 psiCHECK-miR122 Renilla luciferase reporter, 48 h. Put plainly: miR-122 inhibitors in reporter cells, dose response, cell-based, Huh7-psiCHECK-miR122, luminescence, dry powder (AID 687040).
Conditions: not given
With `CCCCNS(=O)(=O)c1ccc2nc(-c3cccnc3)cc(C(=O)NC(C)CC)c2c1` (centres undefined), the AC40 was 0.274 µM.

Consider `Cc1ccc(C(C)C)cc1S(=O)(=O)Nc1cccnc1`, for which the AC40 was 1.79 µM.

For the compound `CCOc1ccc(C)cc1S(=O)(=O)NC1CCCCC1`, the AC40 is 0.394 µM.

On to `CC1CCCCN1C(=O)c1cc2nc(-c3ccccc3)cc(-c3ccccc3)n2n1` (centres undefined), for which the AC40 was 0.925 µM.

Turning to `COc1cccc(N2CCN(C(=O)c3oc4ccccc4c3NC(=O)CCc3cc(OC)no3)CC2)c1`, the AC40 was 2.39 µM.

Take `Cc1ccc(C)c(S(=O)(=O)Nc2ccc(-n3cnnn3)cc2)c1`: the AC40 is 0.271 µM.

For `Cc1cccc(NS(=O)(=O)c2cc3c(cc2C)NC(=O)CO3)c1`, the AC40 is 2.65 µM.

As to `CCOc1cc(C)c(S(=O)(=O)NC2CCCCC2)cc1C`, the AC40 was 1.24 µM.

Turning to `COc1ccc(S(=O)(=O)Nc2ccc(OC(F)F)cc2)c2cccnc12`, the AC40 was 1.43 µM.

For the compound `Cc1cc(C)c(S(=O)(=O)NC(C)C)c(C)c1-n1cnnn1`, the AC40 is 1.72 µM.

Regarding `O=C(Nc1ccc2ccccc2c1)c1ccc(Cl)cc1Cl`, the AC40 was > 35 µM (inactive).

In the case of `COc1ccc(S(=O)(=O)NCCN2CCOCC2)c2ccccc12`, the AC40 is 1.6 µM.

Consider `Cc1cc(S(=O)(=O)NC2CCCCC2)c(C)s1`, for which the AC40 is 2.04 µM.

Consider `O=S(=O)(c1ccc2c(c1)CCCN2)N1CCC[C@@H]2CCCC[C@H]21`, for which the AC40 is 6.94 µM.

For `Cc1ccc(C)c(S(=O)(=O)Nc2ccc3cn[nH]c3c2)c1`, the AC40 was 1.54 µM.

As to `Cc1ccc(NS(=O)(=O)c2cc(C(=O)NCc3ccccn3)ccc2Cl)cc1C`, the AC40 is 2.27 µM.

`Cc1cc(C)c(S(=O)(=O)NC2CC3CCC2C3)c(C)c1` (centres undefined): the AC40 was 0.792 µM.

Consider `CCN(CC)C(=O)CN(c1cc2c(cc1OC)oc1ccccc12)S(=O)(=O)c1ccccc1`, for which the AC40 was 2.29 µM.

Consider `Nc1c(S(=O)(=O)c2cccs2)c2nc3ccccc3nc2n1Cc1ccccc1`, for which the AC40 is 1.25 µM.

Turning to `Cc1ccc(S(=O)(=O)Nc2ccc3c4c(cccc24)CC3)c(C)c1`, the AC40 was 3.66 µM.

Turning to `CCOc1ccccc1N1CCN(C(=O)c2cccc(-c3ccc(O)cc3)c2)CC1`, the AC40 is less than 0.26 µM.

As to `Cc1ccc(C(=O)C2Oc3ccccc3C3CC(c4ccc(C)cc4)=NN23)cc1` (centres undefined), the AC40 is 0.831 µM.

In the case of `COc1ccc(C)cc1NS(=O)(=O)c1ccc2c(c1)N(C)CCO2`, the AC40 is 2.65 µM.

Consider `Cc1cc(C)c(C)c(S(=O)(=O)NC2CCCCC2)c1C`, for which the AC40 was 0.507 µM.

With `COc1cc(C)c(C(C)C)cc1S(=O)(=O)n1cnc(C)c1`, the AC40 is 4.6 µM.

With `COC(=O)c1cc(S(=O)(=O)Nc2cc(OC)cc(OC)c2)cn1C`, the AC40 is 3.19 µM.

In the case of `CN1C(=O)c2cccc3c(S(=O)(=O)NCCc4ccccc4)ccc1c23`, the AC40 was 0.3 µM.

Turning to `S=C(Nc1ccc(Cl)cc1Cl)NC1CCCCC1`, the AC40 was 4.18 µM.

Take `O=C(CN1CCOCC1)Nc1ccc(Br)cc1C(=O)c1ccccc1`: the AC40 is 1.43 µM.

Turning to `Cc1cc(Cl)c(Cl)cc1S(=O)(=O)NCCCn1ccnc1`, the AC40 is 1.89 µM.

As to `Cc1cc(C(C)(C)C)cc(S(=O)(=O)NCCO)c1C`, the AC40 is 1.26 µM.

With `O=C(Nc1ccc(N2CCOCC2)c(S(=O)(=O)Nc2cc(Cl)ccc2Cl)c1)c1cccnc1`, the AC40 was 0.761 µM.

With `COc1ccc(C(C)(C)C)cc1S(=O)(=O)NCC1CCCO1` (centres undefined), the AC40 is 0.456 µM.

Tested on in a further test: not listed separately
The test is described as above. Particulars: Huh7 psiCHECK-miR122 Renilla luciferase reporter, 48 h; at 35 µM (top of the series).
As to `O=S(=O)(Nc1cccc2[nH]ncc12)c1ccc(F)c2ncccc12`, the activity increase (miR-122 inhibition) was 6.99% (inactive).
